Here are results for 41 molecules from the Deep4Chem optical property database.

“And” between values parts separate entries of the source, which are not always exact repeats. Equal entries are not always repeated.

The nature of the series: solvent given as SMILES.

For the molecule `CC1=C(C(C)(C)C)C(C)=[N+]2C1=C(C)c1c(C)c(C(C)(C)C)c(C)n1[B-]2(F)F`, the absorption maximum is listed as 529 nm (in C1CCCCC1); 525.1 nm (in C1CCOC1); 525.1 nm (in C1COCCO1); 520.8 nm (in CC#N); 522.5 nm (in CC(C)=O); 527.5 nm (in CC(C)CC(C)(C)C). The absorption maximum reads like this: (in CCC(C)C) 527.1 nm; (in CCCC(C)=O) 523.7 nm; (in CCCCCC) 527.5 nm; (in CCCCCCCCO) 527.3 nm; (in CCCCCCO) 526.7 nm; (in CCCCO) 526.1 nm. Also, the absorption maximum reads like this: (in CCCCOC(C)=O) 524.3 nm; (in CCCO) 525.3 nm; (in CCO) 524.3 nm; (in CCOC(C)=O) 523.2 nm; (in CCOCC) 525.1 nm; (in CN(C)C=O) 524 nm. Moreover, the absorption maximum reads like this: (in CNC=O) 522.3 nm; (in CO) 522.9 nm; (in COC(C)=O) 522.5 nm; (in OCC(F)(F)F) 521.6 nm.
For `O=C([O-])c1c(Cl)c(Cl)c(Cl)c(Cl)c1-c1c2cc(I)c(=O)c(I)c-2oc2c(I)c([O-])c(I)cc12`, the absorption maximum is reported as 561 nm (in CC(C)O), 558 nm (in CCO), 556 nm (in CO) and 548 nm (in O).
With `CC(C)c1ccc(/C=C/c2nc3ccc(N(C)C)cc3s2)cc1`, the absorption maximum was 388 nm (in C1CCCCC1) and 392 nm (in CC#N).
With `Cc1cc(-c2ccc(-c3nc4ccccc4[nH]3)cc2)ccc1-c1ccc(-c2nc3ccccc3[nH]2)cc1`, the absorption maximum (in CN(C)C=O) is given as 330 nm.
For the molecule `CCCCn1c2ccc3ccc4ccccc4c3c2c2c3c(ccc4ccccc43)ccc21`, the absorption maximum (in ClCCl) is 337 nm.
As for `c1ccc(-c2nc3c(c4c2-c2ccccc2CC4)-c2ccccc2CC3)cc1`, the absorption maximum is given as 314 nm (in C1CCOC1); 308 nm (in CC#N); 309 nm (in CCCCCC); 314 nm (in CCOC(C)=O); 318 nm (in CO); 316 nm (in CS(C)=O). For the same molecule, the absorption maximum turned out to be 312 nm (in Cc1ccccc1) and 318 nm (in ClCCl).
Regarding `CC1(C)C(/C=C/C=C/C=C/C=C2/N(CCC(=O)O)c3ccc4ccccc4c3C2(C)C)=[N+](CCC(=O)O)c2ccc3ccccc3c21`, the absorption maximum (in CO) was found to be 792 nm.
Regarding `COC(=O)CNC(=O)CCNc1cccc2ccccc12`, the absorption maximum (in CCO) worked out at 330 nm.
Consider `O=C(c1ccc2c3c(sc2c1)-c1ccccc1P3(=O)c1ccccc1)c1c(F)c(F)c(F)c(F)c1F` (stereo unspecified), for which, for the setting “in ClCCl”, the absorption maximum is 368 nm and 381 nm.
For the molecule `CCCN1/C(=C/C=C/C=C/C2=[N+](CCC)c3ccccc3C2(C)C)C(C)(C)c2ccccc21`, the absorption maximum is 637 nm (in CO), 645 nm (in CS(C)=O) and 633 nm (in O).
Take `N#Cc1ccc(/C=C2\C=C(c3ccccc3)OC2=O)cc1`: the absorption maximum (in C1COCCO1) was 400 nm.
`O=C1Cc2ccc(cc2)CC(=O)Cc2ccc(c3nsnc23)C1`: the absorption maximum was 384 nm (in C1CCCCC1), 382 nm (in CC#N) and 384 nm (in ClC(Cl)Cl).
As to `FC(F)(F)c1ccc(C#Cc2cc(C#Cc3ccc(C(F)(F)F)cc3)c3ccc4c(C#Cc5ccc(C(F)(F)F)cc5)cc(C#Cc5ccc(C(F)(F)F)cc5)c5ccc2c3c54)cc1`, the absorption maximum (in ClCCl) amounted to 467 nm.
Still for that read-out and setting: in the case of `Clc1nnc(Oc2ccc(N(c3ccccc3)c3ccccc3)cc2)nn1` it was 525 nm; in that of `CC(C)(C)NC(=O)c1ccc(Br)c2ccc3c4ccc(F)cc4c4cc(F)ccc4c3c12`, 338 nm.
Under “in ClCCl”, `CCCCCCc1cc2c3c(c1)c(=C(c1ccccc1)c1ccccc1)c1cc(CCCCCC)cc4c1N3c1c(cc(CCCCCC)cc1c4=C(c1ccccc1)c1ccccc1)c2=C(c1ccccc1)c1ccccc1` displayed an absorption maximum of 405 nm.
Consider `Cc1cc(C)c(B(c2ccc(-c3nc4c5ccccc5c5ccccc5c4[nH]3)cc2)c2c(C)cc(C)cc2C)c(C)c1`, for which the absorption maximum by setting is: (in C1CCOC1) 384 nm; (in CC(C)=O) 380 nm; (in CS(C)=O) 386 nm; (in Cc1ccccc1) 381 nm; (in ClCCl) 376 nm.
For the molecule `COc1ccc(-c2cc3c(ccc4sccc43)s2)cc1`, the absorption maximum (in ClCCl) is given as 333 nm.
For the molecule `O=c1c2ccccc2n2c3ccccc3c(=O)c3cc(-c4ccccc4)cc1c32`, the absorption maximum came to 447 nm (in CC#N); 437 nm (in CCCCCC); 440 nm (in CCCCOCCCC); 443 nm (in CCOC(C)=O); 450 nm (in CN(C)C=O); 445.76 nm (in Cc1ccccc1).
For the setting “in CC#N”, `Oc1ccccc1/C=N/c1cc2nc3ccccc3nc2cc1/N=C/c1ccccc1O` gave an absorption maximum of 403 nm.
Under “in C1CCCCC1”, `C=Cc1cccc(OC)c1` displayed an absorption maximum of 295 nm.
In the case of `CCC1=C(C)C(=O)n2c1cc1c(C)c(CCC(=O)OC)c(C)n1c2=O`, the absorption maximum reads like this: (in CC#N) 420 nm; (in CC(C)=O) 420 nm; (in CO) 424 nm; (in CS(C)=O) 425 nm; (in ClC(Cl)Cl) 427 nm; (in c1ccccc1) 420 nm.
Consider `CNc1ncc2nc(C#N)n(Cc3ccccc3)c2n1`, for which the absorption maximum amounted to 342 nm (in C1COCCO1), 342 nm (in CC#N), 342 nm (in CO) and 341 nm (in ClCCl).
Regarding `COc1cc2cc(OC)c(-c3ccc([N+](=O)[O-])cc3)cc2cc1-c1ccc([N+](=O)[O-])cc1`, the absorption maximum (in ClC(Cl)Cl) was 336 nm and the absorption maximum (in ClCCl) is on record as 337 nm.
`COc1ccc(C(=O)/C=C/c2ccc(N(C)C)cc2)cc1OC`: the absorption maximum is listed as 403 nm (in C1CCOC1); 412 nm (in CC#N); 426 nm (in CC(=O)O); 408 nm (in CC(C)=O); 419 nm (in CCO); 416 nm (in CN(C)C=O). The absorption maximum was determined as 421 nm (in CO), 404 nm (in Cc1ccccc1), 417 nm (in ClC(Cl)Cl) and 406 nm (in c1ccccc1).
For the setting “in ClCCl”, `COc1ccc(C2=C(c3ccc(OC)cc3)c3cccc4c5c(cc(c34)O2)=NC2C=C(Br)C(Br)=CC2N=5)cc1` (stereo unspecified) gave an absorption maximum of 526 nm.
In the case of `CCCCN1c2ccccc2Sc2cc(/C=C/C3=Nc4ccc5ccccc5c4C3(C)C)ccc21`, the absorption maximum was found to be 414 nm (in C1CCCCC1); 417 nm (in C1COCCO1); 416 nm (in CCOC(C)=O); 414 nm (in CCOCC); 423 nm (in Cc1ccccc1).
For the setting “in c1ccccc1”, `O=c1oc2ccccc2nc1-c1ccccc1` showed an absorption maximum of 332 nm.
Where the note is “in CS(C)=O”, `C[N+]1=C(/C=C/C=C2/N(CCC[N+](C)(C)C)c3ccc(S(=O)(=O)[O-])cc3C2(C)C)C(C)(C)c2ccccc21` returned an absorption maximum of 556 nm.
Regarding `Cc1ccc(-c2nc(-c3cc([N+](=O)[O-])ccc3O)[nH]c2-c2ccc(C)cc2)cc1`, the absorption maximum (in CO) was found to be 284 nm.
With `O=C1O[B-]2(OC1=O)OC(c1ccccc1)=CC(c1ccc3ccccc3c1)=[O+]2`, the absorption maximum runs as follows: (in CC#N) 435 nm; (in ClC(Cl)(Cl)Cl) 435 nm.
Turning to `CC[N+]1(CC)CN2C(=N1)C(C(=O)O)=Cc1ccccc12`, the absorption maximum is 361 nm (in CN(C)C=O) and 373 nm (in O).
Take `CN(C)c1ccc(/C=C/C(=C(C#N)C#N)c2ccc3c4c(cccc24)CC3)cc1`: the absorption maximum is, setting by setting: (in C1CCOC1) 488 nm; (in CC#N) 494 nm; (in CC(C)=O) 492 nm; (in CCOC(C)=O) 497 nm; (in CN(C)C=O) 505 nm; (in CO) 496 nm. In addition, the absorption maximum turned out to be 487 nm (in Cc1ccccc1) and 483 nm (in ClC(Cl)Cl).
In the case of `Cc1c(COC(=O)Cc2ccccc2)n2c(OCC(=O)Cc3ccccc3)c(C)c(=O)n2c1=O`, the absorption maximum (in CCO) amounted to 379 nm.
For the setting “in ClCCl”, `CCOC(=O)c1ccc(C2CC(c3cccc4ccccc34)=NN2c2ccc(F)cc2)cc1` (stereo unspecified) displayed an absorption maximum of 375 nm.
For the setting “in O”, `O=C([O-])COc1cc(NC(=O)c2ccc(-c3c4cc(Cl)c(=O)cc-4oc4cc(O)c(Cl)cc34)c(C(=O)[O-])c2)ccc1N(CC(=O)[O-])CC(=O)[O-]` had an absorption maximum of 506 nm.
For the molecule `CN(C)c1ncc2nc(C#N)n(Cc3ccccc3)c2n1`, the absorption maximum runs as follows: (in C1COCCO1) 355 nm; (in CC#N) 357 nm; (in CO) 358 nm; (in ClCCl) 361 nm.
For `Cc1ccccc1C1=C2C=c3c(oc4ccc(F)cc34)=[N+]2[B-](F)(F)n2c1cc1c3cc(F)ccc3oc12`, the absorption maximum (in C1CCCCC1) is recorded as 581.5 nm, the absorption maximum (in CCOC(C)=O) is listed as 576.5 nm and the absorption maximum (in CO) was 574.5 nm.
Where the note is “in ClC(Cl)(Cl)Cl”, `CC(=O)OC[C@H]1O[C@@H]([C@@H]2C=CC(=S)NC2=O)[C@H](OC(C)=O)[C@@H]1OC(C)=O` had an absorption maximum of 420 nm.
For the molecule `CC(C)(C)C1Nc2ccccc2C(=O)N1c1ccccc1` (stereo unspecified), the absorption maximum was 348 nm (in CC#N); 337 nm (in CCCCCCCCCCCCCCCC); 356 nm (in CO); 344 nm (in ClC(Cl)Cl); 343 nm (in c1ccccc1).
As to `COc1ccc2cc(/C=C/C3=[O+][B-](F)(F)OC(/C=C/c4ccc5cc(OC)ccc5c4)=C3c3ccccc3)ccc2c1`, the absorption maximum (in ClCCl) worked out at 526 nm.
